Assay results: ChEMBL document CHEMBL3045318, “Synthesis and Antimicrobial Evaluation of Some t(3)-Alkyl and t(3),t(5)-Dimethyl-r(2),c(6)-DI-2-Furfurylpiperidin-4-one and its Derivatives” (2005)
≈ marks a conversion by molar mass, not a printed value. Calls of active or inactive are those of the source. The calls are words filed in the database; no cut-off is given here.

What was measured:
Enterococcus faecalis [1] = test: Antimicrobial activity against Enterococcus faecalis after 24 hr by serial dilution method; assay type: functional
Pseudomonas aeruginosa [2] = test: Antimicrobial activity against Pseudomonas aeruginosa at 100 ug/ml after 24 hr by serial dilution method; assay type: functional, organism-based
Aspergillus niger [3] = test: Antimicrobial activity against Aspergillus niger at 100 ug/ml after 72 to 96 hr by serial dilution method; assay type: functional, organism-based
Candida [4] = test: Antimicrobial activity against Candida 6 after 72 to 96 hr by serial dilution method; assay type: functional
Escherichia coli = test: Antimicrobial activity against Escherichia coli after 24 hr by serial dilution method; assay type: functional
Candida [5] = test: Antimicrobial activity against Candida-51 after 72 to 96 hr by serial dilution method; assay type: functional
Bacillus subtilis = test: Antimicrobial activity against Bacillus subtilis after 24 hr by serial dilution method; assay type: functional
Aspergillus niger [6] = test: Antimicrobial activity against Aspergillus niger at 200 ug/ml after 72 to 96 hr by serial dilution method; assay type: functional, organism-based
Klebsiella pneumoniae [7] = test: Antimicrobial activity against Klebsiella pneumoniae at 100 ug/ml after 24 hr by serial dilution method; assay type: functional, organism-based
Cryptococcus neoformans [8] = test: Antimicrobial activity against Cryptococcus neoformans at 100 ug/ml after 72 to 96 hr by serial dilution method; assay type: functional, organism-based
Aspergillus flavus [9] = test: Antimicrobial activity against Aspergillus flavus after 72 to 96 hr by serial dilution method; assay type: functional
Cryptococcus neoformans [10] = test: Antimicrobial activity against Cryptococcus neoformans at 200 ug/ml after 72 to 96 hr by serial dilution method; assay type: functional, organism-based
Klebsiella pneumoniae [11] = test: Antimicrobial activity against Klebsiella pneumoniae after 24 hr by serial dilution method; assay type: functional
Pseudomonas aeruginosa [12] = test: Antimicrobial activity against Pseudomonas aeruginosa after 24 hr by serial dilution method; assay type: functional
Aspergillus niger [13] = test: Antimicrobial activity against Aspergillus niger after 72 to 96 hr by serial dilution method; assay type: functional
Cryptococcus neoformans [14] = test: Antimicrobial activity against Cryptococcus neoformans after 72 to 96 hr by serial dilution method; assay type: functional
Enterococcus faecalis [15] = test: Antimicrobial activity against Enterococcus faecalis at 100 ug/ml after 24 hr by serial dilution method; assay type: functional, organism-based
Aspergillus flavus [16] = test: Antimicrobial activity against Aspergillus flavus at 200 ug/ml after 72 to 96 hr by serial dilution method; assay type: functional, organism-based
Aspergillus flavus [17] = test: Antimicrobial activity against Aspergillus flavus at 100 ug/ml after 72 to 96 hr by serial dilution method; assay type: functional, organism-based

| SMILES | MIC (Enterococcus faecalis [1]) [µg/mL] | inhibition (Pseudomonas aeruginosa [2]) | inhibition (Aspergillus niger [3]) | MIC (Candida [4]) [µg/mL] | MIC (Escherichia coli) [µg/mL] | MIC (Candida [5]) [µg/mL] | MIC (Bacillus subtilis) [µg/mL] | inhibition (Aspergillus niger [6]) | inhibition (Klebsiella pneumoniae [7]) | inhibition (Cryptococcus neoformans [8]) | MIC (Aspergillus flavus [9]) [µg/mL] | inhibition (Cryptococcus neoformans [10]) | MIC (Klebsiella pneumoniae [11]) [µg/mL] | MIC (Pseudomonas aeruginosa [12]) [µg/mL] | MIC (Aspergillus niger [13]) [µg/mL] | MIC (Cryptococcus neoformans [14]) [µg/mL] | inhibition (Enterococcus faecalis [15]) | inhibition (Aspergillus flavus [16]) | inhibition (Aspergillus flavus [17]) |
| --- | --- | --- | --- | --- | --- | --- | --- | --- | --- | --- | --- | --- | --- | --- | --- | --- | --- | --- | --- |
| CCC1C(=O)CC(c2ccco2)NC1c1ccco1 (stereo unspecified) | 100 (≈ 386 µM) | inactive | inactive | 50 (≈ 193 µM) | 25 (≈ 96.4 µM) | 100 (≈ 386 µM) | 25 (≈ 96.4 µM) | inactive | inactive | inactive | 100 (≈ 386 µM) | inactive | – | – | – | – | – | – | – |
| CCC1/C(=N\O)CC(c2ccco2)NC1c1ccco1 (stereo unspecified) | 25 (≈ 91.1 µM) | – | – | 25 (≈ 91.1 µM) | 25 (≈ 91.1 µM) | 12.5 (≈ 45.6 µM) | 25 (≈ 91.1 µM) | – | – | – | 25 (≈ 91.1 µM) | – | 6.25 (≈ 22.8 µM) | 12.5 (≈ 45.6 µM) | 50 (≈ 182 µM) | 12.5 (≈ 45.6 µM) | – | – | – |
| CC1C(=O)CC(c2ccco2)NC1c1ccco1 (stereo unspecified) | – | inactive | inactive | 100 (≈ 408 µM) | 50 (≈ 204 µM) | 100 (≈ 408 µM) | 50 (≈ 204 µM) | inactive | inactive | inactive | – | inactive | – | – | – | – | inactive | inactive | inactive |
| CC1C(=NO)C(C)C(c2ccco2)NC1c1ccco1 (stereo unspecified) | 25 (≈ 91.1 µM) | – | – | 12.5 (≈ 45.6 µM) | 25 (≈ 91.1 µM) | 12.5 (≈ 45.6 µM) | 25 (≈ 91.1 µM) | – | – | – | 12.5 (≈ 45.6 µM) | – | 6.25 (≈ 22.8 µM) | 50 (≈ 182 µM) | 25 (≈ 91.1 µM) | 6.25 (≈ 22.8 µM) | – | – | – |
| CN[C@@H]1[C@H](O[C@H]2[C@H](O[C@H]3[C@H](O)[C@@H](O)[C@H](N=C(N)N)[C@@H](O)[C@@H]3N=C(N)N)O[C@@H](C)[C@]2(O)C=O)O[C@@H](CO)[C@H](O)[C@H]1O [STREPTOMYCIN] | 50 (≈ 86 µM) | – | – | – | 12.5 (≈ 21.5 µM) | – | 12.5 (≈ 21.5 µM) | – | – | – | – | – | 25 (≈ 43 µM) | 25 (≈ 43 µM) | – | – | – | – | – |
| CC1C(=O)C(C)C(c2ccco2)NC1c1ccco1 (stereo unspecified) | 50 (≈ 193 µM) | inactive | – | 50 (≈ 193 µM) | 12.5 (≈ 48.2 µM) | 50 (≈ 193 µM) | 12.5 (≈ 48.2 µM) | – | – | inactive | 50 (≈ 193 µM) | inactive | 100 (≈ 386 µM) | – | 100 (≈ 386 µM) | – | – | – | – |
| CC1/C(=N\O)CC(c2ccco2)NC1c1ccco1 (stereo unspecified) | 25 (≈ 96 µM) | – | – | 50 (≈ 192 µM) | 12.5 (≈ 48 µM) | 12.5 (≈ 48 µM) | 25 (≈ 96 µM) | – | – | – | 50 (≈ 192 µM) | – | 12.5 (≈ 48 µM) | 25 (≈ 96 µM) | 100 (≈ 384 µM) | 25 (≈ 96 µM) | – | – | – |
| C[C@@H]1[C@H](O)[C@@H](C)/C=C/C=C/C=C/C=C/C=C/C=C/C=C/[C@H](O[C@@H]2O[C@H](C)[C@@H](O)[C@H](N)[C@@H]2O)C[C@@H]2O[C@](O)(C[C@@H](O)C[C@@H](O)[C@H](O)CC[C@@H](O)C[C@@H](O)CC(=O)O[C@H]1C)C[C@H](O)[C@H]2C(=O)O [AMPHOTERICIN B] | – | – | – | 25 (≈ 27.1 µM) | – | 25 (≈ 27.1 µM) | – | – | – | – | 50 (≈ 54.1 µM) | – | – | – | 50 (≈ 54.1 µM) | 25 (≈ 27.1 µM) | – | – | – |
